Reference: patent publication US20050142192A1, “Oral administration of [2-(8,9-dioxo-2,6-diazabicyclo[5.2.0]non-1(7)-en-2-yl)alkyl] phosphonic acid and derivatives” (Wyeth, priority 2003, published 2005)
Where two headings read alike, the source gives them in different places.

Key:
[1] = ascending multiple-dose pharmacokinetic study in healthy subjects; format: in vivo; details: human, plasma, po, mean ± SD; for half-life: read-out: T½ (converted)
Experimental: A study was conducted as an ascending multiple-dose tolerance study of 2-(8,9-dioxo-2,6-diazabicyclo[5.2.0]non-1(7)-en-2-yl)ethyl]phosphonic acid with administration of 200, 400, 800, and 1600 mg oral doses in healthy subjects over a 14-day period.

[2] = ascending single-dose pharmacokinetic study in healthy subjects; format: in vivo, human; details: for AUC: t = 0 to ∞; for CL/F: read-out: mean oral-dose clearance (C1/F) (converted)
Experimental: A study was conducted as an ascending single-dose tolerance study with fasting administration of 500, 1000, 2000, and 4000 mg oral doses. In each cohort, 8 subjects received either placebo (2 subjects) or the prescribed dose of 2-(8,9-dioxo-2,6-diazabicyclo[5.2.0]non-1(7)-en-2-yl)ethyl]phosphonic acid (6 subjects). Subjects in the fasting 1000-mg cohort were crossed over to receive a 1000-mg postprandial dose in study period 2. Additionally, the 2000-mg dose level was repeated in a cohort of elderly subjects.

[3] = animal absorption study, oral bioavailability in monkeys; details: monkey, in vivo, 100 mg/kg
[4] = ascending single-dose pharmacokinetic study in healthy subjects; format: in vivo; details: human, plasma, intravenous, 100 mg, 100 mg 1-hour, infusion, mean ± SD
[5] = test system: Caco-2 cell; assay: Caco-2 cell permeability
[6] = animal absorption study, oral bioavailability in rats; details: rat, in vivo, 100 mg/kg
[7] = pH range of 4 to 8
[8] = apparent n-octanol/water partition coefficient
[9] = 200 mg, Multiple dose administration (day 14), 200 mg q 12 h Oral, fed
[10] = 200 mg, Single dose administration, 200 mg Oral, fasting
[11] = 400 mg, Multiple dose administration (day 14), 400 mg q 12 h Oral, fasting
[12] = 400 mg, Single dose administration, 400 mg Oral, fasting
[13] = 800 mg, Multiple dose administration (day 14), 800 mg q 12 h Oral, fasting
[14] = 800 mg, Single dose administration, 800 mg Oral, fasting
[15] = 1600 mg, Multiple dose administration (day 14), 1600 mg q 12 h Oral, fasting
[16] = 1600 mg, Single dose administration, 1600 mg Oral, fasting
[17] = 1000 mg, after standardized high-fat, high-calorie meal versus fasting
[18] = human, plasma, po, 500 mg, 500 mg Oral, fasting, single administration, healthy subjects, mean ± SD
[19] = human, plasma, po, 1000 mg, 1000 mg Oral, fasting, single administration, healthy subjects, mean ± SD
[20] = human, plasma, po, 1000 mg, 1000 mg Oral, fed (high-fat, high-calorie meal), single administration, healthy subjects, mean ± SD
[21] = human, plasma, po, 2000 mg, 2000 mg Oral, fasting (elderly), single administration, mean ± SD
[22] = human, plasma, po, 2000 mg, 2000 mg Oral, fasting, single administration, healthy adult subjects, mean ± SD
[23] = human, plasma, po, 4000 mg, 4000 mg Oral, fasting, single administration, healthy subjects, mean ± SD

In the case of `O=c1c2c(c1=O)N(CCP(=O)(O)O)CCCN2` [[2-(8,9-dioxo-2,6-diazabicyclo[5.2.0]non-1(7)-en-2-yl)ethyl]phosphonic acid], the Cmax [1, 9] is reported as 153 ± 75 ng/mL, the Tmax [1, 9] is reported as 1.2 ± 0.3 h and the half-life [1, 9] is reported as 6.6 ± 3.9 h. It also gave an AUC ([1]; 200 mg, Multiple dose administration (day 14), 200 mg q 12 h Oral, fed, t = 0 to 12 hours (tau)) of 817 ± 265 ng·h/mL, a Cmax [1, 10] of 172 ± 90 ng/mL and a Tmax [1, 10] of 1.3 ± 0.5 h. It also gave a half-life [1, 10] of 3.5 ± 0.6 h, an AUC ([1]; 200 mg, Single dose administration, 200 mg Oral, fasting, t = 0 to ∞) of 699 ± 201 ng·h/mL and a Cmax [1, 11] of 398 ± 209 ng/mL. For the same molecule, the Tmax [1, 11] was 1.6 ± 1.3 h, the half-life [1, 11] was 11.9 ± 10.4 h and the AUC ([1]; 400 mg, Multiple dose administration (day 14), 400 mg q 12 h Oral, fasting, t = 0 to 12 hours (tau)) was 1810 ± 747 ng·h/mL. For the same molecule, the Cmax [1, 12] was 346 ± 282 ng/mL, the Tmax [1, 12] was 2 ± 1.6 h and the half-life [1, 12] was 4.5 ± 1.2 h. The AUC ([1]; 400 mg, Single dose administration, 400 mg Oral, fasting, t = 0 to ∞) was 1490 ± 371 ng·h/mL, the Cmax [1, 13] was 436 ± 151 ng/mL and the Tmax [1, 13] was 1.4 ± 0.6 h. It also gave a half-life [1, 13] of 16.9 ± 8.8 h, an AUC ([1]; 800 mg, Multiple dose administration (day 14), 800 mg q 12 h Oral, fasting, t = 0 to 12 hours (tau)) of 2180 ± 644 ng·h/mL and a Cmax [1, 14] of 715 ± 524 ng/mL. The Tmax [1, 14] was 1.4 ± 0.7 h, the half-life [1, 14] was 8.3 ± 1.3 h and the AUC ([1]; 800 mg, Single dose administration, 800 mg Oral, fasting, t = 0 to ∞) was 3190 ± 800 ng·h/mL. It also gave a Cmax [1, 15] of 1510 ± 842 ng/mL, a Tmax [1, 15] of 1.4 ± 1.3 h and a half-life [1, 15] of 10.5 ± 6.6 h. The AUC ([1]; 1600 mg, Multiple dose administration (day 14), 1600 mg q 12 h Oral, fasting, t = 0 to 12 hours (tau)) was 4910 ± 1210 ng·h/mL, the Cmax [1, 16] was 962 ± 592 ng/mL and the Tmax [1, 16] was 1.3 ± 1.3 h. The half-life [1, 16] was 6.9 ± 1.7 h, the AUC ([1]; 1600 mg, Single dose administration, 1600 mg Oral, fasting, t = 0 to ∞) was 4060 ± 1320 ng·h/mL and the “lowering of mean Cmax by food” value [2, 17] was 67%. The “reduction of mean AUC by food” value [2, 17] was 57%, the “mean oral-dose clearance (C1/F), lower in elderly than in healthy adult subjects” value ([2]; 2000 mg, fasting, single-dose) was “approximately 10%” and the Tmax ([2]; human, plasma, intravenous, 100 mg, 100 mg 1-hour, infusion, healthy subjects, mean ± SD) was 0.95 ± 0.11 h. For the same molecule, the half-life ([2]; human, plasma, intravenous, 100 mg, 100 mg 1-hour, infusion, healthy subjects, mean ± SD, read-out: T½ (converted)) was 8.3 ± 8.8 h, the Cmax [2, 18] was 320 ± 63 ng/mL and the Tmax [2, 18] was 1.9 ± 0.7 h. The half-life ([2]; human, plasma, po, 500 mg, 500 mg Oral, fasting, single administration, healthy subjects, mean ± SD, read-out: T½ (converted)) was 6.7 ± 6.4 h, the AUC [2, 18] was 2140 ± 542 ng·h/mL and the Cmax [2, 19] was 1180 ng/mL. For the same molecule, the Tmax [2, 19] was 0.88 h, the half-life ([2]; human, plasma, po, 1000 mg, 1000 mg Oral, fasting, single administration, healthy subjects, mean ± SD, read-out: T½ (converted)) was 14.6 ± 9.3 h and the AUC [2, 19] was 5130 ng·h/mL. It also gave a Cmax [2, 20] of 392 ng/mL, a Tmax [2, 20] of 2.92 h and a half-life ([2]; human, plasma, po, 1000 mg, 1000 mg Oral, fed (high-fat, high-calorie meal), single administration, healthy subjects, mean ± SD, read-out: T½ (converted)) of 16 ± 10 h. For the same molecule, the AUC [2, 20] was 2210 ng·h/mL, the Cmax [2, 21] was 1610 ± 628 ng/mL and the Tmax [2, 21] was 1.25 ± 0.61 h. The half-life ([2]; human, plasma, po, 2000 mg, 2000 mg Oral, fasting (elderly), single administration, mean ± SD, read-out: T½ (converted)) was 14.1 ± 11.1 h, the AUC [2, 21] was 8890 ng·h/mL and the Cmax [2, 22] was 1790 ± 1360 ng/mL. For the same molecule, the Tmax [2, 22] was 1.42 ± 0.96 h, the half-life ([2]; human, plasma, po, 2000 mg, 2000 mg Oral, fasting, single administration, healthy adult subjects, mean ± SD, read-out: T½ (converted)) was 6.4 ± 2 h and the AUC [2, 22] was 7640 ng·h/mL. The CL/F ([2]; human, plasma, po, 2000 mg, elderly subjects, 2000 mg, fasting, single-dose) was 52.3 mL/min/kg, the CL/F ([2]; human, plasma, po, 2000 mg, healthy adult subjects, 2000 mg, fasting, single-dose) was 58.3 mL/min/kg and the Cmax [2, 23] was 1490 ± 436 ng/mL. The Tmax [2, 23] was 2.6 ± 1.08 h, the half-life ([2]; human, plasma, po, 4000 mg, 4000 mg Oral, fasting, single administration, healthy subjects, mean ± SD, read-out: T½ (converted)) was 9.1 ± 4.6 h and the AUC [2, 23] was 8980 ± 1980 ng·h/mL. For the same molecule, the half-life ([2]; human, plasma, po, all cohorts, oral, fasting, estimates not always reliable, read-out: mean t1/2) was 6 to 16 h, the bioavailability ([2]; human, plasma, subjects in the first cohort (500 mg oral, 100 mg infusion), read-out: mean absolute bioavailability) was 4.3% and the bioavailability [3] was ~2.5%. For the same molecule, the Cmax [4] was 4010 ± 512 ng/mL, the AUC ([4]; t = 0 to ∞) was 10200 ± 1720 ng·h/mL and the Caco-2 cell permeability [5] was “poor”. For the same molecule, the bioavailability [6] was ~1%, the solubility [7] was “very soluble” and the logP [8] was -1.37.
